Experimental findings from PMC11199504, “New hemisynthetic derivatives of sphaeropsidin phytotoxins triggering severe endoplasmic reticulum swelling in cancer cells” (Scientific Reports, 2024) are described below.

Assay [1] has as its system A549, SKMEL-28, U373, MCF7, Hs683, B16F10. As to the kind of experiment: MTT colorimetric assay, mean of the six cell lines. It counts as cell-based. The note with it: 72 h, mean over the six cell lines; 72 h treatment; read-out: IC50 determined by MTT assays, Mean. The text has this: (§1) Cancer cell lines were obtained from either the European Collection of Cell Cultures (ECACC; Salisbury, UK) or the American Type Culture Collection (ATCC; Manassas, VA). The two glioma cell lines were the U373 (ECACC code 08061901) and Hs683 (ATCC HTB-138) cell lines. The carcinoma cell lines were the A549 non-small cell carcinoma cell line (ATCC code CCL 185) and the MCF-7 mammary breast carcinoma cell line (ATCC code HTB-22). The melanoma cell lines were the mouse B16F10 cells (ATCC code CRL-6475) and the human SKMEL-28 cells (ATCC code HTB-72). The ovarian cancer cell line A2780 and its cisplatin-resistant subline A2780cis were obtained from Sigma-Aldrich (St. Louis, MO, USA). Colon cancer HCT116 cells were obtained from ATCC (CCL-247) and the oxaliplatin-resistant subline HCT116/OxR established in the W. Berger lab[59]. The HeLa cell derivative KB-3-1 and the colchicine-selected, highly ABCB1-overexpressing subline KB-C-1 were generously donated by Dr. D. W. Shen, Bethesda, MD. RKOp53wt colon cancer cells together with the RKOp53KO (homozygous knock-out) subline[60] were generously provided by Dr. Vogelstein from John Hopkins University, Baltimore. The correct origin of all cell models was confirmed by STR during performance of the experiments. All cell lines were cultured in RPMI1640 culture medium supplemented with 10% heat-inactivated fetal bovine serum, 2% L-glutamine (0.6 mg/mL), 2% penicillin/streptomycin (200 IU/mL and 200 μg/mL) and 0.1 mg/mL gentamicin.
(§2) The MTT (3-(4,5-dimethylthiazol-2-yl)-2,5-diphenyl tetrazolium bromide) colorimetric assay has been conducted as described previously. Briefly, cells were seeded 24 h before their treatment with each compound for a period of 72 h. The concentrations tested ranged from 10 nM to 100 µM. Each assay was conducted in sextuplicates. The number of independent experiments is mentioned in the legend of the tables.

The test system of another assay is Hs683. As to the kind of experiment: MTT colorimetric assay, Hs683. It counts as cell-based. The note with it: Homo sapiens, Hs 683; 72 h treatment; mean ± SEM; sensitive to apoptosis; read-out: IC50 determined by MTT assays, Hs683.
Text: as §1, §2

Assay [2] has as its system SK-MEL-28 human melanoma and U373 glioblastoma cells. The assay can be described thus: ER swelling / vacuole origin (CellLight ER-GFP, brightfield, TEM). The format is cell-based. The conditions noted are these: SK-MEL-28 and U373 cells. The source says:
To decipher the origin of vacuoles, fluorescent probes staining different cellular compartments were used: the lysosomal Red DND-99 LysoTracker®, the glibenclamide Red ER tracker®, the green FM MitoTracker® that were all purchased from Lifes Technologies (Invitrogen, Belgium) and used according to manufacturer’s instructions. The CellLight ER-GFP (Thermofisher, Belgium) staining of the ER is based on the transfection of a plasmid coding for a fusion protein made of GFP fused to the ER signal sequence of calreticulin and the KDEL ER retention signal. Briefly, 6 × 10^4 cells were seeded on glass coverslips in 6 well plates. After a minimum of 24 h, cells were treated or not with the compounds of interest. Note that concentration and duration of the treatment were determined separately for each compound prior to the experiment on the basis of the apparition of marked morphological changes in phase contrast microscopy. Sixteen hours before the end of the experiment, 4 µL/well of the reagent were added to allow transfection and expression of the GFP-fused protein by the cells. Coverslips were then washed twice in PBS and mounted on slides without fixation step to take captions with the Axio.Imager.M2 microscope (Carl Zeiss, Belgium). To evaluate the cellular distribution of 13, the Axio.Imager.M2 was specifically equipped with an M340L4 excitation source (Thorlabs) and the pseudoconfocal Zeiss ZEN deconvolution system kindly provided for demo by Carl Zeiss (Belgium) to allow direct visualization of the compound 13 itself thanks to its intrinsic fluorescent properties.
For TEM, cells were fixed with glutaraldehyde 2.5% (EM grade, Electron Microscopy Sciences, EMS) at 4 °C overnight, washed tree times in cacodylate buffer (pH 7.4) and postfixed 1 h at room temperature in 1% OsO4, (EMS), 1.5% potassium ferrocyanide (Sigma-Aldrich) in 0.15 M cacodylate buffer. This was immediately followed by a second incubation in 1% OsO4 for 1 h at room temperature. After washing in distilled water, samples were stained with 1% uranyl acetate (EMS) and serially dehydrated in increasing ethanol concentrations. Samples were then embedded in epoxy resin (Agar 100 resin, Agar Scientific Ltd) and left to polymerize for 2 days at 60 °C. Ultrathin sections (50–70 nm thick) were collected with a Leica UC6 ultra-microtome on formvar-carbon-coated copper grids and further stained with uranyl acetate and lead citrate by standard procedures. Observations were made on a Tecnai 10 transmission electron microscope (FEI) and images were captured with a Veleta camera and processed with SIS iTEM software (Olympus).

Another assay relates to SKMEL-28. As to the kind of experiment: MTT colorimetric assay, SKMEL-28. It counts as cell-based. The conditions noted are these: Homo sapiens, SK-MEL-28; 72 h treatment; mean ± SEM; resistant to apoptosis; read-out: IC50 determined by MTT assays, SKMEL-28.
Text: as §1, §2

The next assay deals with MCF7. As to the kind of experiment: MTT colorimetric assay, MCF7. The format is cell-based. The note with it: Homo sapiens, 72 h treatment, mean ± SEM, sensitive to apoptosis, read-out: IC50 determined by MTT assays, MCF7.
Text: as §1, §2

A further assay has as its system A549. As to the kind of experiment: MTT colorimetric assay, A549. It counts as cell-based. The note with it: Homo sapiens, 72 h treatment, mean ± SEM of six replicates of one experiment (1: 7, 13: 6 independent experiments), resistant to apoptosis, read-out: IC50 determined by MTT assays, A549.
Text: as §1, §2

The next assay relates to U373. The assay can be described thus: MTT colorimetric assay, U373. It counts as cell-based. The note with it: Homo sapiens, U373 MG; 72 h treatment; mean ± SEM; resistant to apoptosis; read-out: IC50 determined by MTT assays, U373.
Text: as §1, §2

The test system of another assay is B16F10. The assay can be described thus: MTT colorimetric assay, B16F10. It counts as cell-based. The conditions noted are these: Mus musculus, B16-F10; 72 h treatment; mean ± SEM; sensitive to apoptosis; read-out: IC50 determined by MTT assays, B16F10.
Text: as §1, §2

In assay [3] the test system is SKMEL-28 melanoma and U373 glioblastoma cells. As to the kind of experiment: Morphological evaluation by phase contrast microscopy / videomicroscopy. The note with it: videomicroscopy in SKMEL-28 cells. The format is cell-based, human. How it is done: For the morphological evaluation of the effects induced by compounds 1 and 13, 6 × 10^4 cells were seeded on glass coverslips placed in 6 well plates a minimum 24 h before their treatment. At the end of the incubation period with the treatment, coverslips were rinsed once in PBS buffer and directly mounted on slides to allow visualization of the cell with an Axio.Imager.M2 microscope (G X40 and G X100).

With `CC1(C=CCCOc2cccc3ccccc23)C=C2C(=O)C3(O)OC(=O)C4(CCCC(C)(C)C34)C2(O)CC1` (centres unmarked) [Compound 26], the IC50 was determined as 2140 ± 330 nM in assay [1]; 3100 ± 230 nM with Hs683; 2460 ± 80 nM with SKMEL-28; 1300 ± 110 nM in the assay with MCF7; 2050 ± 200 nM in the assay on A549; 2840 ± 120 nM in the assay with U373. For the same molecule, in the assay on B16F10, the IC50 turned out to be 1080 ± 140 nM. The “ER swelling / ER-derived vacuolization” value in assay [2] is on record as “induction of ER-derived vacuolization”.

`C=CC1(C)C=C2C(=O)C3(OC(=O)c4ccccc4)OC(=O)C4(CCCC(C)(C)C34)C2(O)CC1` (centres unmarked) [Compound 4]: the IC50 turned out to be 2100 ± 110 nM in assay [1]; 2500 ± 120 nM in the assay with Hs683; 2290 ± 170 nM in the assay on SKMEL-28; 1950 ± 140 nM with MCF7; 1760 ± 290 nM with A549; 2190 ± 70 nM in the assay on U373. For the same molecule, in the assay on B16F10, the IC50 is 1880 ± 100 nM. Besides, the “delay in the cellular shrinkage versus SphA 1” value in [3] was not below 24 h.

As for `C#CCCCC(=O)OC12OC(=O)C3(CCCC(C)(C)C13)C1(O)CCC(C)(C=C)C=C1C2=O` (centres unmarked) [Compound 3], the IC50 in assay [1] was determined as 2750 ± 210 nM; in the assay with Hs683, 2830 ± 130 nM; with SKMEL-28, 2560 ± 90 nM; with MCF7, 3720 ± 270 nM; in the assay with A549, 2400 ± 100 nM; with U373 it was 2370 ± 90 nM. Further, in the assay on B16F10, the IC50 came to 2600 ± 70 nM. Also, the “delay in the cellular shrinkage versus SphA 1” value in assay [3] is not below 24 h.

On to `CC1(C=CCOCc2ccc3ccc4cccc5ccc2c3c45)C=C2C(=O)C3(O)OC(=O)C4(CCCC(C)(C)C34)C2(O)CC1` (centres unmarked) [Compound 25], for which the IC50 is 3340 ± 160 nM in [1]; 3320 ± 230 nM in the assay with Hs683; 3320 ± 300 nM in the assay on SKMEL-28; 2710 ± 140 nM in the assay with MCF7; 3470 ± 3280 nM with A549; 3930 ± 100 nM in the assay with U373. Further, the IC50 in the assay on B16F10 is 3280 ± 300 nM. In addition, the “ER swelling / ER-derived vacuolization” value in [2] is listed as “induction of ER-derived vacuolization”.
